{"source": "patent US20240148701A1", "about": "“WOULD HEALING METHODS” (The University of Sydney, priority 2021, published 2024)", "key": {"[1]": {"test_system": "eNOS", "test": "Immunoblot of eNOS expression and serine 1177 phosphorylation in ischemic hind limb", "format": "in vivo, mouse", "settings": "ischemic hindlimb, type 1 diabetes model", "experimental": "Gastrocnemius samples were stored at −80° C. and then mechanically homogenized in ice-cold lysis buffer containing 150 mmol/L NaCl, 200 mmol/L Tris-HCl (pH 8.0), 1% Triton X-100, 0.5% deoxycholic acid, 0.1% SDS, N-ethylmaleimide (25 mM) and protease inhibitors (cOmplete™ EDTA-free, Roche Diagnostics). 30 μg of protein lysate was denatured and run under reducing conditions on SDS-PAGE (Bolt™ pre-cast gels and reagents, Thermofisher Scientific, Australia) and transferred onto Immobilon polyvinylidene fluoride membrane (Merck Millipore, Australia). Membranes were incubated in primary antibodies directed at determining protein expression of the following: Nox isoforms (anti-Nox 2, 1:5000; Abcam, Australia; anti-Nox-4, 1:5000; Abcam, Australia); reactive nitrogen species (anti-nitrotyrosine, 1:1000; Abcam, Australia); and both expression and phosphorylation of eNOS (anti Phospho eNOS serine 1177, 1:1000, Cell Signaling Technology, USA; anti-eNOS 1:1000, BD Biosciences, USA) and Akt (anti Phospho Akt 1:1000, Akt 1:1000, Cell Signaling Technology, USA). Specific secondary antibodies recognizing rabbit or mouse primary antibodies were used (IRDye®, Licor; 1:20,000, USA). Membranes were detected using an Odyssey imaging platform (Licor, USA)."}, "[2]": {"test_system": "Nox 2", "test": "Immunoblot of hind limb Nox 2 expression", "format": "in vivo, mouse", "settings": "ischemic limb, non-diabetic mice, n=4, P>0.05", "experimental": "(§1) Hind limb tissue including the gastrocnemius and adductor muscles were isolated and collected at 14 or 28 days. Tissues were separated and implanted in OCT or placed in cryovials and snap-frozen in liquid nitrogen or were fixed in 10% formalin for 24-hours and then moved to 70% ethanol for storage.\nGastrocnemius samples were stored at −80° C. and then mechanically homogenized in ice-cold lysis buffer containing 150 mmol/L NaCl, 200 mmol/L Tris-HCl (pH 8.0), 1% Triton X-100, 0.5% deoxycholic acid, 0.1% SDS, N-ethylmaleimide (25 mM) and protease inhibitors (cOmplete™ EDTA-free, Roche Diagnostics). 30 μg of protein lysate was denatured and run under reducing conditions on SDS-PAGE (Bolt™ pre-cast gels and reagents, Thermofisher Scientific, Australia) and transferred onto Immobilon polyvinylidene fluoride membrane (Merck Millipore, Australia). […] Membranes were detected using an Odyssey imaging platform (Licor, USA)."}, "[3]": {"test_system": "endothelial colony forming cells (ECFC)", "test": "Tubule formation in patient-derived endothelial colony forming cells", "format": "cell-based, human", "experimental": "Human umbilical vein endothelial cells (HUVECs; Lonza C2519AS, pooled source, Australia) were grown using standard cell culture conditions in endothelial cell growth medium (EGM Plus®, containing 2% fetal bovine serum, Lonza, Australia). All cells were regularly confirmed to be mycoplasma negative. Two different pooled source cell lines were used in experiments and all were used within passages 2-4. Human adult dermal microvascular endothelial cells were also obtained from Lonza (CC-2543, Lonza Australia) and cultured as above but using endothelial growth medium 2-MV bulletkit. Endothelial colony forming cells (ECFCs) were derived from the peripheral blood of participants in the BioHEART study. This registered study (ACTRN12618001322224) complies with the Declaration of Helsinki and the study protocol and design has been approved by the Northern Sydney Local Health District Human Research Ethics Committee (HREC/17/HAWKE/343). […]\nOnce they were ˜70% confluent, cells were re-suspended in diluted EGM Plus® (1:3) and plated on reduced-growth factor extracellular matrix (15 mg/ml, Cultrex, Trevigen, USA) at a density of 1.5×10^4 cells/cm^2. […] Cells were incubated in an EVOS FL Auto Imaging system for 16 hours and tubule formation recorded every hour. Optimal tube formation occurred at the 8-hour timepoint; tubule number at this point was quantified manually using NIH Image J software. […]"}, "[4]": {"test_system": "CD31", "test": "CD31 histological analysis of hind limbs post-ischemia", "format": "in vivo, mouse", "settings": "both type 1 diabetes and non-diabetic mice", "experimental": "Formalin fixed paraffin-embedded gastrocnemius was cut into 4 μm sections and then sections were deparaffinized. Heat retrieval was performed with Tris-EDTA buffer at pH 9. Slides were incubated overnight with a rabbit polyclonal CD31 antibody (dilution 1:200, Abcam Ltd, Australia) followed by horseradish peroxidase anti-rabbit Envision system (Dako Cytochemistry, Tokyo, Japan). Staining was developed with 3.3 diaminobenzidine tetrahydrochloride (Dako Cytochemistry, Tokyo, Japan) and counterstained with Mayer's hematoxylin stain. Rabbit IgG negative controls (Dako Cytochemistry, Tokyo, Japan) were used. A total of ten non-overlapping images for each gastrocnemius were taken with a light microscope (Leica, DM750 linked to an ICC50 E camera module). Images were taken at ×40 and analyzed with National Institute of Health Image J 1.51j8 software."}, "[5]": {"test_system": "eNOS", "test": "NOS activity by radioimmunoassay in hind limb tissue", "format": "in vivo, mouse", "settings": "ischemic and non-ischemic limbs, 14 days post-surgery", "experimental": "as §1\nThe activity of NOS was measured using radioimmunoassay according to manufacturer's instructions (Cayman Chemical, USA). Samples were prepared in triplicate and detected using a liquid scintillation counter (5 min detection, Tri-Carb 4910TR 100V, Perkin Elmer, USA). All samples were also assayed in the presence of L-NAME and this was subtracted from the baseline to give a readout of NOS activity."}}}
{"molecule": "C[C@H](Cc1ccc2c(c1)OC(C(=O)[O-])(C(=O)[O-])O2)NC[C@H](O)c1cccc(Cl)c1.[Na+].[Na+]", "note": "[CL 316,243]", "values": [{"measurement": "eNOS expression", "setting": "[1]", "result": "unaltered"}, {"measurement": "phosphorylation of eNOS at serine 1177", "setting": "[1]", "result": "did not appear to be affected"}, {"measurement": "Nox 2 hind limb protein expression", "setting": "[2]", "result": "1.04±0.46", "unit": "fold change from vehicle"}, {"measurement": "angiogenesis (tubule formation) in ECFCs", "setting": "[3]; ECFCs from patients with significant coronary artery disease, 100 ng/ml", "result": "effectively stimulate angiogenesis"}, {"measurement": "angiogenesis in ECFCs", "setting": "[3]; cells from relatively healthy participants", "result": "did not occur"}, {"measurement": "CD31+ staining in ischemic hindlimbs (vascularization)", "setting": "[4]", "result": "greater CD31+ staining"}, {"measurement": "eNOS activity", "setting": "[5]", "result": "enhanced eNOS activity"}]}
